Laboratory results reported in publication PMC10238538, “Human soluble CD39 displays substrate inhibition in a substrate-specific manner” (Scientific Reports, 2023).

Legend:
[1] = target: T1, Recombinant Human CD39/ENTPD1 Protein (Homo sapiens, UniProt P49961); experiment: Inhibition of CD39 activity by reaction products (nucleoside monophosphates), Malachite Green phosphate assay; assay type: biochemical
T1 construct: purchased R&D System (Biotechne) 4397-EN-010
T1 sequence (P49961 38-478 limits assumed): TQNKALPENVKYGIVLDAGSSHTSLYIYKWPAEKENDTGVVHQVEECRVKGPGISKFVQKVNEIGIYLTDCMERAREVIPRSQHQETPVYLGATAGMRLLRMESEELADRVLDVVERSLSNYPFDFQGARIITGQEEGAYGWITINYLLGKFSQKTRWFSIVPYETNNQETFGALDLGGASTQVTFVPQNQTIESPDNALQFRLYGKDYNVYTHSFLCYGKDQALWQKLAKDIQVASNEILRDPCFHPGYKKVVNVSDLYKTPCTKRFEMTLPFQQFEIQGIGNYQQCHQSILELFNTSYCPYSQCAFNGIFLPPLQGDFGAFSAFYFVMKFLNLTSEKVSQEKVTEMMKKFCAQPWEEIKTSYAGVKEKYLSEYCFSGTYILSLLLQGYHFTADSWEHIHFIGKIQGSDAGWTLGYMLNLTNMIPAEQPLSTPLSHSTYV

[2] = target: T1, Recombinant Human CD39/ENTPD1 Protein; experiment: CD39 activity with varying substrate concentration (phosphate release, Malachite Green), fitted to substrate inhibition model; assay type: biochemical; details: for Vmax: 0.02 µg/ml enzyme, 5 mM CaCl2, 30 min, room temperature; for kcat: Vmax divided by CD39 concentration; for substrate inhibition at high substrate concentrations: result in words
[3] = target: T1, Recombinant Human CD39/ENTPD1 Protein; parameters: method as in PMID 23425137; details: result in words; cited from earlier work
[4] = compound as substrate, Haldane substrate inhibition model
[5] = substrate inhibition constant, compound as substrate, Haldane substrate inhibition model

Structure (SMILES) | IC50 ([1]; 24 μM UTP as substrate) [µM] | Km [2, 4] [µM] | Vmax [2, 4] [nmol/min] | kcat ([2]; compound as substrate) [s⁻¹] | substrate inhibition at high substrate concentrations ([2]; compound as substrate) | Ki [2, 5] [µM] | Ki ([2]; substrate inhibition constant as stated in text) [µM] | IC50 ([1]; 24 μM GTP as substrate) [µM] | hydrolysis by CD39 [3]
O=c1ccn([C@@H]2O[C@H](COP(=O)(O)O)[C@@H](O)[C@H]2O)c(=O)[nH]1 [UMP] | ~165 |  |  |  |  |  |  |  | 
CSc1nc(N)c2ncn([C@@H]3O[C@H](COP(=O)(O)OP(=O)(O)O)[C@@H](O)[C@H]3O)c2n1 [2-MeS-ADP, 2-methylthio-ADP] |  | 9.36 | 0.021 | 17.8 | no substrate inhibition |  |  |  | 
O=c1ccn([C@@H]2O[C@H](COP(=O)(O)OP(=O)(O)OP(=O)(O)O)[C@@H](O)[C@H]2O)c(=O)[nH]1 [UTP] |  | 9.38 | 0.024 | 20.4 | weak substrate inhibition | 1960 |  |  | 
O=c1ccn([C@@H]2O[C@H](COP(=O)(O)OP(=O)(O)O)[C@@H](O)[C@H]2O)c(=O)[nH]1 [UDP] |  | 13.3 | 0.025 | 21.2 | almost no substrate inhibition |  |  |  | 
Nc1ncnc2c1ncn2[C@@H]1O[C@H](COP(=O)(O)OP(=O)(O)OP(=O)(O)O)[C@@H](O)[C@H]1O [ATP] |  | 4.01 | 0.020 | 17.0 |  | 818 |  |  | 
Nc1nc2c(ncn2[C@@H]2O[C@H](COP(=O)(O)OP(=O)(O)O)[C@@H](O)[C@H]2O)c(=O)[nH]1 [GDP] |  | 26.6 | 0.022 | 18.7 |  |  | > 1000 |  | 
Nc1nc2c(ncn2[C@@H]2O[C@H](COP(=O)(O)O)[C@@H](O)[C@H]2O)c(=O)[nH]1 [GMP] |  |  |  |  |  |  |  | ~350 | 
CCCCSc1nc2c(N)ncnc2n1[C@@H]1O[C@H](COP(=O)(O)OP(=O)(O)O)[C@@H](O)[C@H]1O [8-BuS-ADP] |  |  |  |  |  |  |  |  | resistant to hydrolysis by CD39
CCCCSc1nc2c(N)ncnc2n1C1OC(COP(=O)(O)OP(=O)(O)OP(=O)(O)O)C(O)C1O (centres unmarked) [8-butylthio (BuS)-ATP] |  |  |  |  |  |  |  |  | resistant to hydrolysis by CD39
Nc1ncnc2c1ncn2[C@@H]1O[C@H](COP(=O)(O)OP(=O)(O)O)[C@@H](O)[C@H]1O [ADP] |  | 5.71 | 0.021 | 17.8 |  | 358 |  |  | 
CSc1nc(N)c2ncn([C@@H]3O[C@H](COP(=O)(O)OP(=O)(O)OP(=O)(O)O)[C@@H](O)[C@H]3O)c2n1 [2-MeS-ATP] |  | 5.37 | 0.018 | 15.3 |  | 1820 |  |  | 
Nc1nc2c(ncn2[C@@H]2O[C@H](COP(=O)(O)OP(=O)(O)OP(=O)(O)O)[C@@H](O)[C@H]2O)c(=O)[nH]1 [GTP] |  | 20.6 | 0.021 | 17.8 | Substrate inhibition was seen | 680 |  |  | 
